In patent publication US6218392A, “Fused pyridazine compounds” (priority 1994, dated 2001):
Counter-ions that a name gives are not always drawn.

Tests used:
[1] = target: T1, cGMP-PDE (Sus scrofa, UniProt A0A287B475); experiment: Inhibitory activity against cGMP-PDE prepared from swine lung; assay type: biochemical; settings: 1 mM EGTA, 1 mM cGMP as substrate, DMSO 5% or below
T1 construct: Swine lung was minched, followed by the addition of five times (by volume) as much buffer A; from tissue; host or cells: swine lung
Description: The enzyme activity of the cGMP-PDE prepared from swine lung was determined according to the method of Thompson et al. This determination was conducted in the presence of 1 mM EGTA by the use of 1 mM cGMP as substrate. Each compound according to the present invention was dissolved in DMSO and thereafter added to the reaction system to determine the inhibitory activity of the compound. The final concentration of DMSO in the reaction solution was controlled to 5% or below.
The preparation of cGMP-PDE was conducted as follows.
Swine lung was minched, followed by the addition of five times (by volume) as much buffer A (comprising Tris/HCl (20 mM), Mg acetate (2 mM), 2-mercaptoethanol (10 mM), EGTA (0.1 mM) and PMSF (0.2 mM) and adjusted to pH7.4). The resulting mixture was homogenized and centrifuged at 1000×g for 5 minutes. Ammonium sulfate was added to the obtained supernatant and the resulting mixture was centrifuged at 20000×g for 45 minutes to collect a fraction precipitating between 30 and 40% saturation with ammonium sulfate. This fraction was dialyzed against buffer A and passed through a column of DEAE-Toyopearl 650S (a product of Tosoh, Tokyo, Japan). The column was washed with buffer A and subjected to gradient elution with 0.05 to 0.2 M NaClibuffer A to collect a cGMP-PDE fraction.
This cGMP-PDE fraction was passed through Blue-Sepharose CL-6B (a product of Pharmacia, Uppsala, Sweden). The resulting column was washed with buffer A containing cAMP (10 mM) and NaCl (0.5 M) and eluted with buffer A containing cGMP (10 mM) and NaCl (0.5 M). The obtained fraction was dialyzed, concentrated and stored.

[2] = system: pulmonary arterial pressure (PAP); experiment: Pulmonary arterial pressure lowering activity on anesthetized thoracotomized dog by intravenous administration; assay type: in vivo; settings: relative ratio to activity of sodium 1-[chloro-4-(3,4-methylenedioxybenzyl)aminoquinazolin-2-yl]piperidine-4-carboxylate
Description: Male and female hybrid dogs having a weight of about 10 kg were operated under enflurane anesthesia with N2 O/O2 as carrier. Each dog was thoracotomized in the left fourth intercostal space and a pressure transducer (MPC-500 mfd. by Miller) was inserted into the pulmonary artery to determine the pulmonary arterial pressure (PAP). This experiment was conducted with the mean PAP (mPAP) increased by about 10 mmHg by lowering the pressure of oxygen fed by about 40% of the normal one. Each compound according to the present invention was dissolved in Polyethylene glycol 400 (a product of Wako Pure Chemical Industries, Ltd.) in a concentration of 1 mg/ml and, if necessary, further diluted with Polyethylene glycol 400. The resulting solution was intravenously administered to the dog through a polyethylene catheter indwelling in the femoral vein.

COc1ccc(CNc2nnc(Cl)c3ccc(C#N)cc23)cc1Cl [Example 1, 1-Chloro-4-(3-chloro-4-methoxybenzyl)amino-6-cyanophthalazine]
IC50 [1]: 1.7 nM | PAP lowering activity [2]: ≥ 3

COc1ccc(CNc2nnc(N3CCC(O)CC3)c3ccc(C#N)cc23)cc1Cl [Example 4, 4-(3-Chloro-4-methoxybenzyl)amino-6-cyano-1-(4-hydroxypiperidino)phthalazine hydrochloride]
IC50 [1]: 0.18 nM

COc1ccc(CNc2nnc(N3CCC(CO)CC3)c3ccc(C#N)cc23)cc1Cl.Cl [Example 6, 4-(3-Chloro-4-methoxybenzyl)amino-6-cyano-1-[4-(hydroxymethyl)piperidino]phthalazine hydrochloride]
IC50 [1]: 0.015 nM | PAP lowering activity [2]: 10

COc1ccc(CNc2nnc(NCCCO)c3ccc(C#N)cc23)cc1Cl [Example 7, 4-(3-Chloro-4-methoxybenzyl)amino-6-cyano-1-(3-hydroxypropyl)aminophthalazine]
IC50 [1]: 1.2 nM | PAP lowering activity [2]: 1

COc1ccc(CNc2nnc(N3CCC(CCO)CC3)c3ccc(C#N)cc23)cc1Cl.Cl [Example 8, 4-(3-Chloro-4-methoxybenzyl)amino-6-cyano-1-[4-(2-hydroxyethyl)piperidino]phthalazine hydrochloride]
IC50 [1]: 0.03 nM | PAP lowering activity [2]: 10

COc1ccc(CNc2nnc(N3CCC(C)(O)CC3)c3ccc(C#N)cc23)cc1Cl.Cl [Example 9, 4-(3-Chloro-4-methoxybenzyl)amino-6-cyano-1-(4-hydroxy-4-methylpiperidino)phthalazine hydrochloride]
IC50 [1]: 0.7 nM | PAP lowering activity [2]: 10

COc1ccc(CNc2nnc(N3CCCC(O)C3)c3ccc(C#N)cc23)cc1Cl.Cl (stereo not drawn) [Example 10, 4-(3-Chloro-4-methoxybenzyl)amino-6-cyano-1-(3-hydroxypiperidino)phthalazine hydrochloride]
PAP lowering activity [2]: 10

COc1ccc(CNc2nnc(NCc3ccccn3)c3ccc(C#N)cc23)cc1Cl [Example 11, 4-(3-Chloro-4-methoxybenzyl)amino-6-cyano-1-(2-pyridylmethyl)aminophthalazine dihydrochloride]
IC50 [1]: 0.11 nM

COc1ccc(CNc2nnc(N3CCC(=O)CC3)c3ccc(C#N)cc23)cc1Cl.Cl [Example 19, 4-(3-Chloro-4-methoxybenzyl)amino-6-cyano-1-(4-oxopiperidino)phthalazine hydrochloride]
IC50 [1]: 0.53 nM | PAP lowering activity [2]: 3-10

COc1ccc(CNc2nnc(N3CCC(C(=O)O)CC3)c3ccc(C#N)cc23)cc1Cl [Example 20, 1-(4-Carboxypiperidino)-4-(3-chloro-4-methoxybenzyl)-amino-6-cyanophthalazine hydrochloride]
IC50 [1]: 0.12 nM | PAP lowering activity [2]: 0.3-1

COc1ccc(CNc2nn(CCCO)c(=O)c3ccc(C#N)cc23)cc1Cl [Example 25, 4-(3-Chloro-4-methoxybenzyl)amino-6-cyano-2-(3-hydroxypropyl)-1(2H)-phthalazinone]
IC50 [1]: 1.41 nM | PAP lowering activity [2]: 3

Cl.N#Cc1ccc2c(N3CCC(O)CC3)nnc(NCc3ccc4c(c3)OCO4)c2c1 [Example 26, 6-Cyano-1-(4-hydroxypiperidino)-4-(3,4-methylenedioxy-benzyl)aminophthalazine hydrochloride]
IC50 [1]: 4 nM | PAP lowering activity [2]: 1

COc1ccc(CNc2nnc(-n3ccnc3)c3ccc(Cl)cc23)cc1Cl [Example 31, 6-Chloro-4-(3-chloro-4-methoxybenzyl)amino-1-(imidazol-1-yl)phthalazine]
IC50 [1]: 3.74 nM | PAP lowering activity [2]: 1

COc1ccc(CNc2nnc(N3CCC(O)CC3)c3ccc(Cl)cc23)cc1Cl.Cl [Example 32, 6-Chloro-4-(3-chloro-4-methoxybenzyl)amino-1-(4-hydroxypiperidino)phthalazine hydrochloride]
IC50 [1]: 4.4 nM | PAP lowering activity [2]: 1

COc1ccc(CNc2nnc(N3CCC(CO)CC3)c3ccc(Cl)cc23)cc1Cl [Example 36, 6-Chloro-4-(3-chloro-4-methoxybenzyl)amino-1-[4-(hydroxymethyl)piperidino]phthalazine]
IC50 [1]: 1.9 nM | PAP lowering activity [2]: ≥ 1

COc1ccc(CNc2nnc(N3CCC(CCO)CC3)c3ccc(Cl)cc23)cc1Cl [Example 37, 6-Chloro-4-(3-chloro-4-methoxybenzyl)amino-1-[4-(2-hydroxyethyl)piperidino]phthalazine]
IC50 [1]: 1.8 nM | PAP lowering activity [2]: ≤ 0.33

COc1ccc(CNc2nnc(N3CCC(C(=O)O)CC3)c3ccc(Cl)cc23)cc1Cl [Example 43, 1-(4-Carboxypiperidino)-6-chloro-4-(3-chloro-4-methoxybenzyl)aminophthalazine]
IC50 [1]: 0.37 nM | PAP lowering activity [2]: 1

COc1ccc(CNc2nnc(N(C)CCCC(=O)O)c3ccc(Cl)cc23)cc1Cl [Example 44]
IC50 [1]: 2.1 nM | PAP lowering activity [2]: ≤ 0.33

COc1ccc(CNc2nnc(Cl)c3ccc([N+](=O)[O-])cc23)cc1Cl [Example 49, 1-Chloro-4-(3-chloro-4-methoxybenzyl)amino-6-nitrophthalazine]
IC50 [1]: 1.88 nM | PAP lowering activity [2]: 1

COc1ccc(CNc2nnc(N3CCC(O)CC3)c3ccc([N+](=O)[O-])cc23)cc1Cl [Example 51, 4-(3-Chloro-4-methoxybenzyl)amino-1-(4-hydroxy-piperidino)-6-nitrophthalazine hydrochloride]
IC50 [1]: 0.052 nM

COc1ccc(CNc2nnc(N3CCC(CO)CC3)c3ccc([N+](=O)[O-])cc23)cc1Cl.Cl [Example 52, 4-(3-Chloro-4-methoxybenzyl)amino-1-[4-(hydroxymethyl)piperidino]-6-nitrophthalazine hydrochloride]
IC50 [1]: 0.1 nM | PAP lowering activity [2]: 10

COc1ccc(CNc2nnc(N3CCC(CCO)CC3)c3ccc([N+](=O)[O-])cc23)cc1Cl.Cl [Example 53, 4-(3-Chloro-4-methoxybenzyl)amino-1-[4-(2-hydroxyethyl)piperidino]-6-nitrophthalazine hydrochloride]
IC50 [1]: 0.23 nM | PAP lowering activity [2]: 10

CCOC(=O)C1CCN(c2nnc(NCc3ccc(OC)c(Cl)c3)c3cc([N+](=O)[O-])ccc23)CC1 [Example 55, 1-(4-Ethoxycarbonylpiperidino)-4-(3-chloro-4-methoxybenzyl)amino-6-nitrophthalazine]
IC50 [1]: 4.59 nM | PAP lowering activity [2]: ≥ 1

COc1ccc(CNc2nnc(N3CCC(C(=O)O)CC3)c3ccc([N+](=O)[O-])cc23)cc1Cl.Cl [Example 56, 1-(4-Carboxypiperidino)-4-(3-chloro-4-methoxybenzyl)amino-6-nitrophthalazine hydrochloride]
IC50 [1]: 12.6 nM | PAP lowering activity [2]: ≥ 1

O=[N+]([O-])c1ccc2c(-n3ccnc3)nnc(NCc3ccc4c(c3)OCO4)c2c1 [Example 60, 1-(Imidazol-1-yl)-4-(3,4-methylenedioxybenzyl)amino-6-nitrophthalazine]
IC50 [1]: 20.4 nM | PAP lowering activity [2]: 1

COc1ccc(CNc2nnc(N3CCC(C(=O)O)CC3)c3cc(Cl)c(Cl)cc23)cc1Cl [Example 67, 1-(4-Carboxypiperidino)-4-(3-chloro-4-methoxybenzyl)amino-6,7-dichlorophthalazine]
IC50 [1]: 0.32 nM | PAP lowering activity [2]: 0.33
